# Reference: US9481709B2, “Boropeptide inhibitors of enteropeptidase and their uses in treatment of obesity, overweight and/or diseases associated with an abnormal fat metabolism” (OBE THERAPY BIOTECHNOLOGY, priority 2007, dated 2016)
# Tests used:
# [1] = Effect on absorption of 14C-proteins after oral administration; type: in vivo; conditions: for Cmax of 14C-protein radioactivity in plasma: control 0.9%±0.27; for AUC mean of 14C-protein radioactivity in plasma: control 2.214±0.1875; for plateau concentration of 14C-protein radioactivity in plasma: 1 h to 4 h post-administration, control 0.5%
# Experimental: 3. Effect of OBE2001 on Protein Absorption
# This third in vivo experiment was designed to obtain information on the absorption of ^14C-proteins in absence or in presence of OBE2001 at two different doses (5 mg/Kg or 50 mg/Kg) after an oral administration to male Swiss mice.
# 15 male Swiss (CD-1) mice, 5 weeks-old and having a mean body weight of 0.021±0.002 kg were divided in 3 groups: • Control Group (G1; solvant) containing 5 mice, received water at 5 mL/Kg at t-5 min and ^14C-proteins at 10 mL/Kg at T=0 min; • Group 2 (G2) containing 5 mice (OBE 5 mg/Kg), received OBE2001 at 5 mg/Kg at t-5 min and ^14C-proteins at 10 mL/Kg at T=0 min; • Group 3 (G3) containing […] (OBE 50 mg/Kg), received OBE2001 at 50 mg/Kg at t-5 min and ^14C-proteins at 10 mL/Kg at T=0 min.
# A preparation containing 5 ml of Clinoleic 20 (Baxter Ref DDB9500) with 1 g of glucose (Sigma; ref:G8270) and 1 g of casein (Sigma; ref: C3400) was prepared. Water was added until the solution reached 10 ml. After concentration of the radioactive solution containing the ^14C proteins (GE Healthcare; ref: CFA626) (×10), 200 μl of this radioactive solution was added to 2.8 ml of the preparation, in order to reach a concentration of ca 3.3 μCi/ml. The animals were starved before administration of this radioactive preparation. The radioactive preparation was orally administered by intragastric gavage with a single dosing (ca 33.3 μCi/kg) in a volume of ca 10 ml/kg of body weight.
# OBE2001 was provided in a mixture of two salts (HCl and TFA) with a 90% purity. OBE2001 was orally administered by intragastric gavage with a single dosing of 5 mg/Kg for G2 and 50 mg/Kg for G3 in a volume of ca 5 mL/kg body-weight.
# Plasma aliquots were removed and placed into 6 ml pre-weighed plastic vials, at t+15, t+30, t+60, t+120 and t+240 min. About 4 ml Pico-fluor 40 was added and after shaking, the total radioactivity contained within the different samples was determined by liquid scintillation using a Packard 1900 CA spectrometer equipped with an external standard system (spectral analysis). A quenching curve for calibration purposes was set up using a ^14C quenched set supplied by Packard Instruments.
# Liquid scintillation (LS) Counting was carried out with 2 sigma=2%, and for a maximum duration of 5 minutes (according to the method created in the 1900CA® software). Dpm (disintegration per minute) values of less than twice the background level of blank biological medium were reported as BLQ (Below the Limit of Quantitation).
# [2] = molecular target: Kallikrein (Homo sapiens, UniProt P03952); assay: Kallikrein
# Chain of Kallikrein (P03952 20-638): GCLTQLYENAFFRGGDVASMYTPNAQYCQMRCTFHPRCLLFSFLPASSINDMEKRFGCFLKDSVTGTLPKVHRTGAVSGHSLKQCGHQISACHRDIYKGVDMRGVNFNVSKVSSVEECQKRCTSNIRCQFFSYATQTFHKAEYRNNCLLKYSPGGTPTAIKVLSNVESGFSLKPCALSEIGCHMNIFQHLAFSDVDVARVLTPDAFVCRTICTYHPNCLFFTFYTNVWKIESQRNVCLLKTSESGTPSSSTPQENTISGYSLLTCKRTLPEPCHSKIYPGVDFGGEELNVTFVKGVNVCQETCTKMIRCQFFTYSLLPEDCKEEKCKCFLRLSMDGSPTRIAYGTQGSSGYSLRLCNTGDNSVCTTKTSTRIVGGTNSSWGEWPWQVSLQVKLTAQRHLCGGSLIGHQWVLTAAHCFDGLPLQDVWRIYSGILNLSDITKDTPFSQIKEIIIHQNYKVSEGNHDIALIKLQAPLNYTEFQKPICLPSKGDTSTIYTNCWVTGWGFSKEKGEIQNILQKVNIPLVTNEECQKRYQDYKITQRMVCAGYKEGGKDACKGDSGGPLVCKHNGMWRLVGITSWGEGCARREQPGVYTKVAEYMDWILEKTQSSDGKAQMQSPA
# Source text: (§1) Table printed on a drawing sheet, Fig. 5
# Head of the field: Kallikrein
# (§2) The patent's description of the figure: FIG. 5 is a Table showing the IC 50 (in nM) of enteropeptidase, various serine proteases and other enzyme families, in the presence of compounds OBE 1999, OBE 2000, OBE 2001 or OBE 2002.
# (§3) First copying reader's note: Each column is one compound; each row gives its IC50 against the named enzyme.
# Where the first naming reader finds the target: head: Kallikrein
# [3] = molecular target: Enteropeptidase (Homo sapiens, UniProt P98073); assay: Enteropeptidase
# Chain of Enteropeptidase (P98073 2-1019): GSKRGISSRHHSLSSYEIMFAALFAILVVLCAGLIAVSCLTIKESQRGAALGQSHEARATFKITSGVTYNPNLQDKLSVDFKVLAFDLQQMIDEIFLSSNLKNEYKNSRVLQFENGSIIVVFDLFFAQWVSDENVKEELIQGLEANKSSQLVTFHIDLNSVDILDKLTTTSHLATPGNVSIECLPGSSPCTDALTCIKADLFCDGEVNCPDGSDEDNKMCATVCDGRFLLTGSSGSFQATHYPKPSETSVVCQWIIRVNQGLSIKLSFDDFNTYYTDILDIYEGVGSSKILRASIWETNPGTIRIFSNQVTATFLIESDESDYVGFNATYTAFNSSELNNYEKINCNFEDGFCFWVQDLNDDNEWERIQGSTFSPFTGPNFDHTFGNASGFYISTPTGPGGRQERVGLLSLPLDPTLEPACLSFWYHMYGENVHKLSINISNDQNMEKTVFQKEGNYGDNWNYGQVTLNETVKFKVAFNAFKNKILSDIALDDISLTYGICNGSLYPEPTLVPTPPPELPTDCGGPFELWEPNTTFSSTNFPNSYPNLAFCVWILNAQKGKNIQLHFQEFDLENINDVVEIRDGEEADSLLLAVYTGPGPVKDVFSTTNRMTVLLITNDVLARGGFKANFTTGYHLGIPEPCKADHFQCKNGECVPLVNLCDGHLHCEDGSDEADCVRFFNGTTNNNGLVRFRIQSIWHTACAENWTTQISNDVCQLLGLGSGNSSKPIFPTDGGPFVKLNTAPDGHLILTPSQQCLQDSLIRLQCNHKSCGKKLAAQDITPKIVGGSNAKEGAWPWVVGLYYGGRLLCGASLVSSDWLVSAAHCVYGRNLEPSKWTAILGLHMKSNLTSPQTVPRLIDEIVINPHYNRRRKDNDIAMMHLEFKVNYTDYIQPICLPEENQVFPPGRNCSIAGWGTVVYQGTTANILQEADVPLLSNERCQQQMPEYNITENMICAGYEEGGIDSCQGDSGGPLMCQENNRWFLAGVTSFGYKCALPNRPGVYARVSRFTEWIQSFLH
# Source text: as §1
# Head of the field: Enteropeptidase
# as §2, §3
# Where the first naming reader finds the target: head: Enteropeptidase
# [4] = molecular target: Plasmin (Homo sapiens, UniProt P00747); assay: Plasmin
# Chain of Plasmin (P00747 97-810): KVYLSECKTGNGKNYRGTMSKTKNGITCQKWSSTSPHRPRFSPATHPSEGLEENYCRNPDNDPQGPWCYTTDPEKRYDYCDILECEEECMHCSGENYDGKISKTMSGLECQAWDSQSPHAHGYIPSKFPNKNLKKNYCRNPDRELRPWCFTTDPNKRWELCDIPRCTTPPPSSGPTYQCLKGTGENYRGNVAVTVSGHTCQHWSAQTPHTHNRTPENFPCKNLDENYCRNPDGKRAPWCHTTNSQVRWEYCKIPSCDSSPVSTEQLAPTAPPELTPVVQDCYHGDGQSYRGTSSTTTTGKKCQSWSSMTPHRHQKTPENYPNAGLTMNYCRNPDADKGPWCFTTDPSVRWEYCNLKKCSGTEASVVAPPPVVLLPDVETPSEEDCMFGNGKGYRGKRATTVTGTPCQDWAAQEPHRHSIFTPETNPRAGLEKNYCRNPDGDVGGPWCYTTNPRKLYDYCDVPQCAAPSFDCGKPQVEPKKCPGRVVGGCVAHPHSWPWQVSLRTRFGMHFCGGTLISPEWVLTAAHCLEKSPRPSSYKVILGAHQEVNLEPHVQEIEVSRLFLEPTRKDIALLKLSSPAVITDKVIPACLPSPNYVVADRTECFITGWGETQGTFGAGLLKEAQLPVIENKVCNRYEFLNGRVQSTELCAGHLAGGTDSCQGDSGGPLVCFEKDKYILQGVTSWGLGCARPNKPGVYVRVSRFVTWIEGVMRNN
# Source text: as §1
# Head of the field: Plasmin
# as §2, §3
# Where the first naming reader finds the target: head: Plasmin
# [5] = Effect on triglyceride absorption after oral gavage with clinoleic 20% + cholesterol; type: in vivo, mice; conditions: for triglycerides, area under the curve: 0-360 min
# Experimental: 2. Effect of OBE2001 on Triglyceride Absorption The scope of this second in vivo experiment was to analyse the effects of the OBE2001 compound on triglycerides absorption. To that purpose, mice were injected with OBE2001, before and/or after gavage with a solution enriched with cholesterol and free fatty acids (clinoleic at 20%). In this study, 7 week old Swiss CD1 male mice were weighed and randomized for body weight; 3 groups of 5 mice were then constituted of: • Group 1 (solvant): control group. Vehicle (H2O+2% DMSO) at t-5 min+solution A (clinoleic 20%+cholesterol) at t0. • Group 2 (OBE 25+25): OBE2001 25 mg/kg (before and after gavage). OBE2001 25 mg/kg (solution B) at t-5 min+OBE2001 25 mg/kg in solution A (solution C) at t0. • Group 3 (OBE 25): OBE2001 25 mg/kg […]. Vehicle (H2O+2% DMSO) at t-5 min+OBE2001 25 mg/kg in solution A (solution C) at t0. 30 minutes before treatment (with solution A, B or C) blood was collected by retro orbital puncture after a slight anaesthesia (Isoflurane), to determine basal (t0) triglycerides levels. All solutions were then administered by oral gavage at t-5 (vehicle or solution B) or t0 (solution A or C). After administration of the solution A or C (containing fatty acids+cholesterol), blood was collected again by retro orbital puncture after a slight anaesthesia (Isoflurane) at time 60, 120, 180, 300 and 360 minutes for measurement of triglycerides levels. At time 360 minutes, mice were sacrificed.
structure (smiles),measurement,setting,value
CC(=O)N[C@@H](C)C(=O)N[C@@H](Cc1ccccc1)C(=O)N[C@@H](CCCNC(=N)N)B1OC2C[C@@H]3C[C@@H](C3(C)C)[C@]2(C)O1 (some centres unmarked) [OBE2001],Cmax of 14C-protein radioactivity in plasma,[1]; 5 mg/kg oral at t-5 min,0.58%±0.54 % of administered dose/g
same,AUC mean of 14C-protein radioactivity in plasma,[1]; 5 mg/kg,1.841±0.6402 % dose.h.g-1
same,Cmax of 14C-protein radioactivity in plasma,[1]; 50 mg/kg oral at t-5 min,0.54%±0.24 % of administered dose/g
same,AUC mean of 14C-protein radioactivity in plasma,[1]; 50 mg/kg,1.718±0.4366 % dose.h.g-1
same,plateau concentration of 14C-protein radioactivity in plasma,[1]; 5 mg/kg,0.4 % administered dose/g
same,plateau concentration of 14C-protein radioactivity in plasma,[1]; 50 mg/kg,0.4 % administered dose/g
same,protein absorption compared to control mice,"[1]; first 30 minutes after protein administration, maintained at least 4 hours",greatly decreased
same,morbidity or mortality,"[1]; single oral dose 5 or 50 mg/kg, male Swiss mice",no sign of morbidity or mortality occurred
same,IC50,[2],6.9 nM
same,IC50,[3],7.3 nM
same,IC50,[4],21.7 nM
same,"triglycerides, area under the curve","[5]; Group 2, 25+25 mg/kg",48559
same,"triglycerides, area under the curve","[5]; Group 3, 25 mg/kg",56273
same,triglyceride absorption compared to the control group,"[5]; 25 mg/kg, groups 2 and 3",decrease in triglyceride absorption
same,"plasma triglycerides, % of basal value","[5]; 60 min, Group 2, 25 mg/kg at t-5 min + 25 mg/kg at t0, oral gavage",243.39 % of basal value
same,"plasma triglycerides, % of basal value","[5]; 60 min, Group 3, single 25 mg/kg in solution A at t0, oral gavage",293.17 % of basal value
same,"plasma triglycerides, % of basal value","[5]; 120 min, Group 2, 25 mg/kg at t-5 min + 25 mg/kg at t0, oral gavage",202.34 % of basal value
same,"plasma triglycerides, % of basal value","[5]; 120 min, Group 3, single 25 mg/kg in solution A at t0, oral gavage",269.24 % of basal value
same,"plasma triglycerides, % of basal value","[5]; 180 min, Group 2, 25 mg/kg at t-5 min + 25 mg/kg at t0, oral gavage",127.81 % of basal value
same,"plasma triglycerides, % of basal value","[5]; 180 min, Group 3, single 25 mg/kg in solution A at t0, oral gavage",126.45 % of basal value
same,"plasma triglycerides, % of basal value","[5]; 300 min, Group 2, 25 mg/kg at t-5 min + 25 mg/kg at t0, oral gavage",62.35 % of basal value
same,"plasma triglycerides, % of basal value","[5]; 300 min, Group 3, single 25 mg/kg in solution A at t0, oral gavage",70.22 % of basal value
same,"plasma triglycerides, % of basal value","[5]; 360 min, Group 2, 25 mg/kg at t-5 min + 25 mg/kg at t0, oral gavage",56.71 % of basal value
same,"plasma triglycerides, % of basal value","[5]; 360 min, Group 3, single 25 mg/kg in solution A at t0, oral gavage",60.92 % of basal value
same,% of decrease of triglyceride area under the curve versus group 1,"[5]; Group 2/group 1, 25+25 mg/kg, 25 mg/kg",26%
same,% of decrease of triglyceride area under the curve versus group 1,"[5]; Group 3/group 1, 25 mg/kg",14%
